Test results: patent US20120316199A1, “COMPOSITIONS AND METHODS FOR TREATING, CONTROLLING, REDUCING, OR AMELIORATING INFLAMMATORY PAIN” (priority 2011, published 2012)

Columns and labels:
[1] = system: intraocular pressure (IOP); experiment: Clinical study after cataract surgery: intraocular pressure (safety); assay type: in vivo, human
Source text: There were 8 treatment groups in this study, consisting of three drug doses, vehicle and three dosing frequencies (see also Table 4-1): • Group A: 1% BOL-303242-X ophthalmic suspension, two times per day (BID) • Group B: 2% BOL-303242-X ophthalmic suspension, one time per day (QD) • Group C: 2% BOL-303242-X ophthalmic suspension, BID • Group D: 2% BOL-303242-X ophthalmic suspension, four times per day (QID) • Group E: 3% BOL-303242-X ophthalmic suspension, QD • Group F: 3% BOL-303242-X ophthalmic suspension, BID • Group G: 3% BOL-303242-X ophthalmic suspension, QID • Group H: Vehicle for BOL-303242-X (divided equally into QID, BID, and QD)
Visit 1 (screening), Visit 2 (cataract surgery), Visit 3 (postoperative Day 1), Visit 4 (postoperative Day 3±1 day), Visit 5 (postoperative Day 8±1 day), Visit 6 (postoperative Day 15±1 day), Visit 7 (postoperative Day 18±1 day). Subject assessments included adverse events (AEs), concomitant medications, ocular symptoms, pinholed Snellen visual acuity (VA), intraocular pressure (IOP), ocular signs (biomicroscopy), fundoscopy, and study drug drop sensation. In addition, subject diaries were collected and reviewed for accuracy and treatment compliance.
Safety: The safety endpoints in this study were: incidence of AEs, change in IOP, ocular signs (biomicroscopy), Snellen VA, fundoscopy, study drug drop sensation assessment.

[2] = system: New Zealand White rabbits; experiment: Mortality/morbidity in New Zealand White rabbits, topical dosing four times daily; assay type: in vivo; settings: for Mortality (rabbits that died or were euthanized between Days 11 and 33): right eye four times daily, Days 1-31
Description: On Days 1-31, animals received daily topical doses of the appropriate test article into the right eye. Animals were dosed four times per day, with doses administered 2 hours apart. Doses were administered using a calibrated 50-μL pipette. The eyelids were held close for 10 seconds immediately following dosing. The time of each dose administration was recorded.
Animals determined to be moribund were euthanized with an intravenous injection of commercial euthanasia solution.

[3] = Group D, 1 mg/g (0.05 mg/dose) 4 x daily, individual rabbit

Cc1ccc2c(NC[C@](O)(CC(C)(C)c3cc(F)cc4c3OCC4)C(F)(F)F)cccc2n1 [BOL-303242-X, mapracorat]
mean IOP values among dose groups ([1]; 2% QID and 3% QD groups, Visit 4 (postoperative Day 3) to Visit 7 (postoperative Day 18)): lowest mean TOP values | proportion of subjects with mean IOP changes from baseline of ≧5 mmHg or ≧10 mmHg, compared to vehicle ([1]; any dose groups at any study visits): no statistically significant differences | Mortality (rabbits that died or were euthanized between Days 11 and 33) ([2]; 0.05 mg/dose (0.1% dexamethasone suspension or 1 mg/g BOL-303242-X)): one of ten | Mortality (rabbits that died or were euthanized between Days 11 and 33) ([2]; 5 mg/g suspension ([…])): two of ten | Morbidity noted in a surviving rabbit ([2]; 10 mg/g (0.5 mg/dose), one surviving rabbit (Group B, No. 3048)): diarrhea on Day 18 | Mortality (rabbits that died or were euthanized between Days 11 and 33) ([2]; 10 mg/g suspension (0.5 mg/dose)): one of ten | Mortality rate per dose level ([2]; 0.05, 0.25, or 0.5 mg/dose four times daily up to 31 days): 1-2 deaths per 10 rabbits | Day of Death (day euthanized or found dead) ([2]; Group B, 10 mg/g (0.5 mg/dose) 4 x daily, individual rabbit): 11 | Day of Death (day euthanized or found dead) [2, 3]: 29 | Recorded Notes on death [2, 3]: Found dead.
